Data from US11045519B2, “Arginine-rich polypeptide compositions and methods of using same” (UNM Rainforest Innovations, priority 2017, dated 2021).

Key:
[1] = test system: HPV16 pseudovirions (PsVs); assay: HPV16 PsV luciferase infectivity assay, HaCaT cells pretreated with peptide; format: cell-based; details: 24 h
Description: HaCaT cells were cultured in complete growing medium (CM; Dulbecco's modified Eagle's medium nutrient mixture F-12 HAM (Sigma-Aldrich, St. Louis, Mo.)) supplemented with 10% fetal bovine serum (FBS), amino acids (Sigma-Aldrich, St. Louis, Mo.), 2 mM L-glutamine, 100 U/ml penicillin and 1 μg/ml streptomycin (Sigma-Aldrich, St. Louis, Mo.), as previously described (Patterson et al., 2005. J Virol 79:6838-6847). Semi-confluent cells were pretreated for 30 minutes with arginine-rich peptides dissolved in CM (6 μM gp91dstat, gp91dstat (scramble), R9, and TAT, or 3 polyR) before the exposure to HaCaT cells and 300 vge/cell HPV16 pseudovirions (PsVs) packaging a luciferase reporter plasmid. Infectivity was scored after 24 hours of incubation at 37° C. (i.e., post infection) by Lumat LB9501 (Berthold Technologies GmbH & Co KG, Bad Wildbad, Germany) equipment, using the luciferase assay kit (Promega, Madison, Wis.) according to manufacturer's specification. Raw data were normalized to total cellular protein concentration. Graph summarizes triplicate treatments; error bars represent SEM.
Fifty percent inhibitory concentration (IC50) of HPV16 PsV infection of HaCaT cells by the compounds. For generation of an inhibitory concentration 50 (IC50) curves, cells were pretreated with the indicated concentration of arginine-rich peptides prior to HPV16 PsV exposure. Infectivity was scored after 24 hours of incubation at 37° C. and the data from two independent duplicate experiments were pooled and analyzed using non-linear regression (curve fit) function of PRISM software (GraphPad Software, Inc., LaJolla, Calif.).
Semi-confluent HaCaT cells maintained in CM, were pretreated for one hour with PrS dissolved in CM at the 0-5.8 μM concentrations before exposure to HPV16 PsVs (350 vge/cell). Infectivity was scored after 24 hours of incubation at 37° C. using a luminometer (Lumat LB9501, Berthold GmbH & Co., Bad Wildbad, Germany) and luciferase assay (Promega, Madison, Wis.) according to manufacturer's specification. Raw data were normalized to total cellular protein concentration.
For generation of an inhibitory concentration 50 (IC50) curve for PrS inhibition, data from two independent duplicate experiments was pooled and analyzed using the non-linear regression (curve fit) function of PRISM (GraphPad Software, Inc., La Jolla, Calif.).
3 μM PrS incubated for one hour at room temperature with 2 mg/ml high or low molecular weight HA in CM, prior to the addition to HaCaT cells. 350 vge/cell HPV16 PsVs were used for infection of cells in the presence or absence of PrS or HA:PrS complex. Infection was scored after 24 hours as described in FIG. 12.
HaCaT cells were pretreated with 6 μM concentrations of gp91dstat, gp91dstat (scramble), R9, or TAT, or 3 μM polyR. After 30 minutes of incubation at 37° C., cells were infected with HPV16 pseudovirions (PsVs) at a dose of 300 viral genome equivalents (vge)/cell, and the relative infectivity was quantified after 24 hours compared to infection in untreated cells (FIG. 1). Each treatment was performed in triplicate.
To evaluate the anti-HPV activity of PrS, HaCaT cells, a keratinocyte-derived cell line, was used as a model for analysis of HPV infection. […]
Infections were initiated using Luciferase-expressing HPV16 PsVs that were produced, isolated, and quantified as described previously (Surviladze et al., 2012. PLoS Pathogens 8: e1002519; Campos S K and Ozbun M A, 2009. PloS One 4:e4463). […]

HPV16 PsVs = assay: Dissociation of cell-bound HPV16 PsVs from HaCaT cells (L1 immunoblot); format: cell-based; details: 3 μM added to HPV-bound HaCaT cells, 1 h 4° C.
Description: (A) HPV16 PsVs were bound to HaCaT cells (one hour at 4° C.), before the addition of […]. After a one-hour incubation at 4° C., unbound virus was washed out, cells were lysed and analyzed for the content of HPV L1 protein. (B) HaCaT cells were exposed to HPV 16 PsV at 4° C. in the absence of polyR, simultaneously with polyR (0 h), or one hour after polyR treatment (+1 h). After extensive washing with PBS, cells were lysed and analyzed for the content of HPV16 L1 protein.
FIG. 19. […] HPV16 PsVs were bound to HaCaT cells (one hour in cold), before the addition of 5 μM PrS. After a one-hour incubation at 4° C., unbound virus was washed out, cells were lysed, and HPV L1 protein content was measured as described in FIG. 16.
To determine whether polyR could cause HPV16 dissociation from cells, HPV16 PsVs were bound to HaCaT cells for one hour at 4° C. After washing away unbound virus, HPV-bound cells were incubated with 3 μM polyR for one hour at 4° C.; control cells were untreated. Cells were lysed and analyzed for HPV L1 protein content. […]
The post-attachment inhibitory effects of PrS could be due the displacement of capsids from the cell surface. […] After a one-hour incubation at 4° C., unbound virus was washed out, cells were lysed, and the HPV L1 protein content was analyzed.

## poly-L-arginine [polyR]
[1]; 3 μM, 30 min pretreatment of HaCaT cells, 300 vge/cell
  inhibition of HPV16 PsV infection: > 98%
[1]; pretreatment before PsV exposure, two independent duplicate experiments, read-out: IC50 of HPV16 PsV infection of HaCaT cells
  IC50: 19 nM
HPV16 PsVs
  release of HPV16 from cell membrane: did not induce the release of HPV16 from the cell membrane
